Consider four molecules from patent publication EP0087751B1, “Water-soluble peptides from very poorly soluble amino acids” (PFRIMMER KABI GMBH & CO. KG, priority 1982, dated 1985).

The nature of data set [1]: Solubility in water.
Data set [2] in a line: Solubility in water. Format: physicochemical. Particulars: for Löslichkeit: in water.

In brackets after ≈: the same amount, converted by molar mass. Where a SMILES comes first, the peptide text is derived from it.

Usually solubility stands for the concentration that dissolves in the medium under given conditions. The low end stands for little dissolved substance, the high end for much dissolved substance. Take `N[C@@H](CSSC[C@H](N)C(=O)O)C(=O)O` [Cystin]: in “Solubility in water [1]”, the solubility came to 0.09 mg/mL (≈ 0.375 mM).

As for `NCCCC[C@H](N)C(=O)O` [Lysin], the solubility in “Solubility in water [1]” worked out at 666 mg/mL (≈ 4560 mM).

As to “N^2-Cystinyl-N^6-L-cystinyl-L-lysin [N^2,N^6-Di-L-cystinyl, L-lysin]”, in the data set “Solubility in water [2]” (20°C), the Löslichkeit was found to be 125 g/L H20.

As to `N[C@@H](Cc1ccc(O)cc1)C(=O)NCCCC[C@H](NC(=O)[C@@H](N)Cc1ccc(O)cc1)C(=O)O` [N^2-Tyrosinyl-N^6-tyrosinyl-lysin, N^2-Tyrosinyl-N^6-L-tyrosinyl-L-lysin] (H-Tyr-Lys(Tyr)-OH), in “Solubility in water [2]” (temperature not stated), the Löslichkeit amounted to 622 g/L H20. Moreover, the “Faktor besser löslich in Wasser als das freie Tyrosin” value in “Solubility in water [2]” (ratio of water solubility of the tripeptide to that of free Tyrosin) is 1,62 . 10^3.
